Measured values reported in patent publication US20160120915A1, “METHODS FOR MANIPULATING IMMUNE RESPONSES BY ALTERING MICROBIOTA” (NEW YORK UNIVERSITY, priority 2013, published 2016).
Structures can show the parent of a compound that is named as a salt.

Key:
ileal tissue = test: Ileal gene expression profiling by whole genome microarray, 8-week EarlySTAT; type: in vivo, C57BL/6J mice
Method: Ileal gene expression profiling of STAT, PAT, and control animal groups, was performed using the Affymetrix Genechip system (Affymetrix). Total RNA quality and quantity were determined using the Agilent 2100 Bioanalyser and Nanodrop ND-1000. Total RNA (100 ng) was used to prepare cDNA following the Affymetrix […] Express Kit labelling protocol (Affymetrix). Standardized array processing procedures recommended by Affymetrix were performed, including hybridization, fluidics processing and scanning of the Affymetrix MG-430 2.0 arrays. GeneSpring GX11 software (Agilent Technologies) was used to normalize the raw data (Affymetrix CEL files) by Robust Multichip Average algorithm (RMA).
997 reproducibly regulated genes were identified from ˜45,000 genes of the mouse genome by T-test (p<0.05) and fold change (≧1.2 or ≦0.8) in 8-week STAT mice (FIG. 8). DAVID analysis was performed using the regulated genes, and Gene Set Enrichment analysis (GSEA) was performed using whole gene data.

[1] = system: small intestine lamina propria lymphocytes; test: EL-PAT: flow cytometry of small intestine lamina propria lymphocytes; type: in vivo, C57BL/6 mice; details: 7-week old; for small intestine CD4+ IL-17A+ (IL-17A expression): males, vs control
Method: For the experiments, dams and their litters were divided into control and antibiotic groups. In the EL-PAT study dams in the antibiotic groups received Tylosin tartrate (Sigma Aldrich, St. Louis Mo.) dissolved in distilled deionized water (neutral pH) at a concentration of 0.33 mg/ml, and dams in the control group received non-acidified water. Mice in the PAT3 group received two additional doses of antibiotics at day 27 and 36 of life for 3 days. In some experiments, C57BL/6 mice were exposed to one, PAT1, (n=17, M=9, F=8) or three, PAT3, (n=19, M=10, F=9) doses of the macrolide Tylosin in non-acidified water or non-acidified water alone (control, n=12, M=9, F=3), early-in-life, to mirror pediatric antibiotic exposures. For the first antibiotic pulse […] of Tylosin tartrate (Sigma) was dissolved in 250 ml of non-acidified water and given to PAT1 and PAT3 lactating dams at pup day 5 of life for 5 days. For the second and third pulse, pups received the antibiotic directly at day 27 and day 36 of life respectively, for three days. Mice were sacrificed at 7 weeks of age and fecal, ileal and cecal contents were collected. Throughout the experiment mouse weight and fecal contents were collected. After euthanasia of the mice by CO2 asphyxiation, small intestines were excised and placed in cold calcium and magnesium-free HBSS supplemented with HEPES-Bicarbonate and 5% FBS (CMF). Peyer's patches were removed and the intestine was opened longitudinally along its entire length. Intestinal contents were removed by washing thoroughly with cold CMF and treated with 1 mM DTT to remove contaminating intra-epithelial lymphocytes. Subsequently, the intestinal tissue was treated twice with 1.3 mM EDTA to remove epithelial cells. To isolate lamina propria lymphocytes, intestinal tissue was cut laterally into ˜0.5 cm pieces and digested in collagenase IV digestion mix (0.5 mg/ml of collagenase IV, 200 ug/ml of DNase 1 suspended in RPMI supplemented with 10% FBS and HEPES for 1 hour. For each digestion procedure, samples were incubated at 37° C. with vigorous shaking After each treatment, cell isolates were filtered through 100 μm diameter nylon mesh (BD Bioscience). For further purification of leukocytes, intestinal cell suspensions were subjected to a 44% /67% discontinuous Percoll (GE Healthcare Life Sciences) gradient. Cells were spun at 2,200 rpm for 20 minutes and collected at the 44% /67% Percoll interface. Viable cells were carefully removed from the interface, washed, and suspended in RPMI complete media. […] All cells were acquired on a LSRII (BD Bioscience) and analyzed using FlowJo software (version 9.3.2; Tree Star Inc.). […]

Structure (SMILES) | reproducibly regulated genes out of ~45,000 genes of the mouse genome (ileal tissue; 8-week STAT mice, T-test p<0.05 and fold change ≧1.2 or ≦0.8) | SAA1 expression in ileal tissue (microarray/GSEA) (ileal tissue; 8-week, STAT vs control) | intestinal CD4+ IL-17A+ populations ([1]; females, three antibiotic doses, p<0.01) | CD4− IL-17A+ populations ([1]; females, three therapeutic doses, p<0.05) | small intestine CD4+ IL-17A+ (IL-17A expression) ([1]; one therapeutic dose) | small intestine CD4+ IL-17A+ (IL-17A expression) ([1]; three therapeutic doses)
CC1(C)S[C@@H]2[C@H](NC(=O)COc3ccccc3)C(=O)N2[C@H]1C(=O)[O-].[K+] [STAT, penicillin VK] | 997 | strong down-regulation | – | – | – | –
CC[C@H]1OC(=O)C[C@@H](O)[C@H](C)[C@@H](O[C@@H]2O[C@H](C)[C@@H](O[C@H]3C[C@@](C)(O)[C@@H](O)[C@H](C)O3)[C@H](N(C)C)[C@H]2O)[C@@H](CC=O)C[C@@H](C)C(=O)/C=C/C(C)=C/[C@@H]1CO[C@@H]1O[C@H](C)[C@@H](O)[C@@H](OC)[C@H]1OC [Tylosin, Tylosin tartrate] | – | – | significantly decreased | decreased | significantly decreased | significantly decreased
